Data reported in PubChem BioAssay AID248 (DTP/NCI, 2004).
Where “and” joins values, the source holds several entries; their conditions need not be identical. Identical values can stand only once. Toxic doses and inconclusive results are not listed. Rule as the data show it: active = T/C of 150% or more; inactive = T/C below 125%.

Tested on: L1210 leukemia ip in BDF1 mice, survival T/C
Assay: NCI In Vivo Anticancer Drug Screen. Data for tumor model L1210 Leukemia (intraperitoneal) in B6D2F1 (BDF1) mice
Details: endpoint: mean survival time, higher = longer survival
Outline: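 Transplanted-tumor mice were given test agent; controls received vehicle only. Survival readings from the two groups were divided (treated over control).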

[1] = dose: 200.0 mg/kg/injection, schedule: Q01DX001 (ip), vehicle: other
[2] = dose: 100.0 mg/kg/injection, schedule: Q01DX001 (ip), vehicle: Klucel (hydroxypropylcellulose) (HPC)
[3] = dose: 200.0 mg/kg/injection, schedule: Q01DX001 (ip), vehicle: Klucel (hydroxypropylcellulose) (HPC)
[4] = dose: 400.0 mg/kg/injection, schedule: Q01DX001 (ip), vehicle: Klucel (hydroxypropylcellulose) (HPC)
[5] = dose: 100.0 mg/kg/injection, schedule: Q04DX003 (ip), vehicle: saline with Tween-80
[6] = dose: 200.0 mg/kg/injection, schedule: Q04DX003 (ip), vehicle: saline with Tween-80
[7] = dose: 400.0 mg/kg/injection, schedule: Q04DX003 (ip), vehicle: saline with Tween-80
[8] = dose: 100.0 mg/kg/injection, schedule: Q01DX001 (ip), vehicle: saline
[9] = dose: 200.0 mg/kg/injection, schedule: Q01DX001 (ip), vehicle: saline
[10] = dose: 400.0 mg/kg/injection, schedule: Q01DX001 (ip), vehicle: saline
[11] = dose: 25.0 mg/kg/injection, schedule: Q01DX009 (ip), vehicle: Klucel (hydroxypropylcellulose) (HPC)
[12] = dose: 50.0 mg/kg/injection, schedule: Q01DX009 (ip), vehicle: Klucel (hydroxypropylcellulose) (HPC)
[13] = dose: 100.0 mg/kg/injection, schedule: Q04DX003 (ip), vehicle: Klucel (hydroxypropylcellulose) (HPC)
[14] = dose: 200.0 mg/kg/injection, schedule: Q04DX003 (ip), vehicle: Klucel (hydroxypropylcellulose) (HPC)
[15] = dose: 400.0 mg/kg/injection, schedule: Q04DX003 (ip), vehicle: Klucel (hydroxypropylcellulose) (HPC)
[16] = dose: 100.0 mg/kg/injection, schedule: Q01DX009 (ip), vehicle: saline with Tween-80
[17] = dose: 200.0 mg/kg/injection, schedule: Q01DX009 (ip), vehicle: saline with Tween-80
[18] = dose: 100.0 mg/kg/injection, schedule: Q04DX002 (ip), vehicle: saline with Tween-80
[19] = dose: 200.0 mg/kg/injection, schedule: Q04DX002 (ip), vehicle: saline with Tween-80
[20] = dose: 400.0 mg/kg/injection, schedule: Q04DX002 (ip), vehicle: saline with Tween-80
[21] = dose: 100.0 mg/kg/injection, schedule: Q01DX009 (ip), vehicle: Klucel (hydroxypropylcellulose) (HPC)
[22] = dose: 100.0 mg/kg/injection, schedule: Q01DX009 (ip), vehicle: saline
[23] = dose: 200.0 mg/kg/injection, schedule: Q01DX009 (ip), vehicle: saline

Measured: T/C

CCCCCCCCCCCCCCNC1=C(OC)C(=O)C(NCCCCCCCCCCCCCC)=C(OC)C1=O
inactive: dose: 100.0 mg/kg/injection, schedule: Q01DX001 (ip), vehicle: other 95 % of control | [1] 104 % of control | dose: 400.0 mg/kg/injection, schedule: Q01DX001 (ip), vehicle: other 90 % of control

CC(C=O)C=O
inactive: [2] 91 % of control | [3] 88 % of control | [4] 89 % of control

Cc1cc(=O)[nH]c(N/N=C/c2ccc(N(CCCl)CCCl)cc2)n1
inactive: [5] 102 % of control | [6] 105 % of control | [7] 109 % of control

N#C/C(N)=C(/C#N)N=Cc1ccccc1
inactive: [2] 97 % of control | [3] 98 % of control | [4] 98 % of control

O=c1[nH]cnc2c1ncn2C1OCC(O)C(O)C1O (stereo not given)
inactive: dose: 50.0 mg/kg/injection, schedule: Q01DX001 (ip), vehicle: saline 105 % of control | [8] 101 % of control and 105 % of control | [9] 119 % of control and 109 % of control | [10] 103 % of control

Cc1ccccc1CN1CCN(CCOC(c2ccccc2)c2ccccc2Cl)CC1 (stereo not given)
inactive: dose: 12.5 mg/kg/injection, schedule: Q01DX009 (ip), vehicle: Klucel (hydroxypropylcellulose) (HPC) 97 % of control | [11] 97 % of control | dose: 25.0 mg/kg/injection, schedule: Q04DX003 (ip), vehicle: Klucel (hydroxypropylcellulose) (HPC) 107 % of control | [12] 102 % of control | dose: 50.0 mg/kg/injection, schedule: Q04DX003 (ip), vehicle: Klucel (hydroxypropylcellulose) (HPC) 100 % of control | [13] 105 % of control | [14] 100 % of control

[CH3][Sn]([CH3])([Cl])[Cl]
inactive: dose: 29.0 mg/kg/injection, schedule: Q01DX009 (ip), vehicle: saline 112 % of control

CCC(CCC(C)C1CCC2C3CC=C4CC(OC5OC(CO)C(O)C(O)C5O)CCC4(C)C3CCC12C)C(C)C (stereo not given)
inactive: dose: 100.0 mg/kg/injection, schedule: Q01DX Z (ip), vehicle: Klucel (hydroxypropylcellulose) (HPC) 92 % of control | [13] 106 % of control | dose: 200.0 mg/kg/injection, schedule: Q01DX Z (ip), vehicle: Klucel (hydroxypropylcellulose) (HPC) 91 % of control | [14] 104 % of control | dose: 400.0 mg/kg/injection, schedule: Q01DX Z (ip), vehicle: Klucel (hydroxypropylcellulose) (HPC) 91 % of control | [15] 90 % of control

CCNC(=O)OCCc1c2ccccc2[n+]([O-])c2ccccc12
inactive: [5] 96 % of control | [6] 102 % of control | [7] 90 % of control

COC(=O)Cc1ccc(Br)cc1
inactive: dose: 50.0 mg/kg/injection, schedule: Q01DX009 (ip), vehicle: saline with Tween-80 106 % of control | [16] 98 % of control | [17] 88 % of control

O=S(=O)(F)c1cc(CBr)ccc1Cl
inactive: [18] 98 % of control | [19] 95 % of control | [20] 101 % of control

CCCNC(=O)c1cccc(-c2cccc(C(=O)NCCC)c2)c1
inactive: [1] 93 % of control

COc1cccc(CNc2ccc(C)cc2C)c1OC
inactive: [21] 100 % of control | [13] 92 % of control | dose: 200.0 mg/kg/injection, schedule: Q01DX009 (ip), vehicle: Klucel (hydroxypropylcellulose) (HPC) 107 % of control | [14] 91 % of control | dose: 400.0 mg/kg/injection, schedule: Q01DX009 (ip), vehicle: Klucel (hydroxypropylcellulose) (HPC) 109 % of control | [15] 97 % of control

O=C(Cc1ccccc1)NCCO
inactive: dose: 50.0 mg/kg/injection, schedule: Q01DX009 (ip), vehicle: saline 103 % of control | [22] 98 % of control | dose: 100.0 mg/kg/injection, schedule: Q04DX002 (ip), vehicle: saline 109 % of control | [23] 101 % of control | dose: 200.0 mg/kg/injection, schedule: Q04DX002 (ip), vehicle: saline 109 % of control | dose: 400.0 mg/kg/injection, schedule: Q01DX009 (ip), vehicle: saline 97 % of control

CCOC(=O)N/N=C(/C)c1cccc([N+](=O)[O-])c1
inactive: [11] 103 % of control | [12] 103 % of control | [21] 100 % of control and 111 % of control

N#Cc1cnn(CCO)c1N
inactive: dose: 100.0 mg/kg/injection, schedule: Q01DX001 (ip), vehicle: carboxymethylcellulose (CMC) 103 % of control | dose: 100.0 mg/kg/injection, schedule: Q01DX009 (ip), vehicle: water 107 % of control | dose: 100.0 mg/kg/injection, schedule: Q04DX003 (ip), vehicle: water 115 % of control | dose: 200.0 mg/kg/injection, schedule: Q01DX001 (ip), vehicle: carboxymethylcellulose (CMC) 97 % of control | dose: 200.0 mg/kg/injection, schedule: Q01DX009 (ip), vehicle: water 101 % of control | dose: 200.0 mg/kg/injection, schedule: Q04DX003 (ip), vehicle: water 110 % of control | dose: 400.0 mg/kg/injection, schedule: Q01DX001 (ip), vehicle: carboxymethylcellulose (CMC) 100 % of control | dose: 400.0 mg/kg/injection, schedule: Q01DX009 (ip), vehicle: water 114 % of control | dose: 400.0 mg/kg/injection, schedule: Q04DX003 (ip), vehicle: water 104 % of control

CNC(=O)N(C1CCCCC1)C1CCCCC1
inactive: dose: 100.0 mg/kg/injection, schedule: Q01DX001 (ip), vehicle: saline with Tween-80 109 % of control | [16] 94 % of control and 111 % of control | [18] 105 % of control and 108 % of control | dose: 200.0 mg/kg/injection, schedule: Q01DX001 (ip), vehicle: saline with Tween-80 109 % of control | [17] 86 % of control and 91 % of control | [19] 92 % of control and 108 % of control | dose: 400.0 mg/kg/injection, schedule: Q01DX001 (ip), vehicle: saline with Tween-80 108 % of control | dose: 400.0 mg/kg/injection, schedule: Q01DX009 (ip), vehicle: saline with Tween-80 101 % of control and 91 % of control | [20] 96 % of control and 108 % of control

c1ccc2cnccc2c1
inactive: [22] 100 % of control | [23] 110 % of control

C[N+]1(C)C2CCCC1CC(=O)C2
inactive: dose: 150.0 mg/kg/injection, schedule: Q01DX001 (ip), vehicle: saline 107 % of control

CC(C)CP(=O)(CC(C)C)C1CCCCC1
inactive: [5] 97 % of control | [6] 99 % of control

O=C(Nc1ccccc1)OC1CCCC2CCC21 (stereo not given)
inactive: [8] 97 % of control | [9] 90 % of control | [10] 90 % of control

OCCSSSCCO
inactive: dose: 75.0 mg/kg/injection, schedule: Q01DX001 (ip), vehicle: other 105 % of control | dose: 150.0 mg/kg/injection, schedule: Q01DX001 (ip), vehicle: other 115 % of control

O=C1CCCC[CH]1[Hg][Cl] (stereo not given)
inactive: dose: 1.25 mg/kg/injection, schedule: Q01DX001 (ip), vehicle: saline 95 % of control | dose: 2.5 mg/kg/injection, schedule: Q01DX001 (ip), vehicle: saline 96 % of control | dose: 5.0 mg/kg/injection, schedule: Q01DX001 (ip), vehicle: saline 87 % of control

COCCNC(=O)N(CCOC)N=O
inactive: dose: 9.0 mg/kg/injection, schedule: Q01DX001 (ip), vehicle: saline 101 % of control | dose: 13.0 mg/kg/injection, schedule: Q01DX001 (ip), vehicle: saline 96 % of control | dose: 26.0 mg/kg/injection, schedule: Q01DX001 (ip), vehicle: saline 102 % of control | dose: 40.0 mg/kg/injection, schedule: Q01DX001 (ip), vehicle: saline 104 % of control | dose: 60.0 mg/kg/injection, schedule: Q01DX001 (ip), vehicle: saline 102 % of control | dose: 93.0 mg/kg/injection, schedule: Q01DX001 (ip), vehicle: saline 95 % of control | dose: 187.0 mg/kg/injection, schedule: Q01DX001 (ip), vehicle: saline 112 % of control | dose: 250.0 mg/kg/injection, schedule: Q01DX001 (ip), vehicle: saline 113 % of control | dose: 500.0 mg/kg/injection, schedule: Q01DX001 (ip), vehicle: saline 112 % of control
